From patent publication US20250113823A1, “Arthropod Control Compositions” (priority 2022, published 2025) come the findings set out here.

The experiment has as its system Aedes aegypti. Put plainly: Warm Body assay, mosquito landings on treated warm body. The experiment is classed as in vivo. To be noted: Aedes aegypti, read-out: Percentage of repellence of mosquitoes Aedes aegypti landing on the warm body. In outline:
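Compounds in ethanol (100 μL, various concentrations) were applied to a sandblasted glass dish covering the warm body (28.3 cm^2), with ethanol as control. Landings were counted automatically from 30 non-blood-fed, sugar-fed Aedes aegypti Rockefeller females aged 5–10 days, under 150 lux.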

Structures are written as SMILES.

Turning to `CCCc1cc(OC)c(OC)c(OC)c1` [compound 1975, 1,2,3-trimethoxy-5-propylbenzene], the pest or weed control at 3.2 µg/mL (0.0032 mg/mL (Table 1)) was determined as 33%. In addition, the pest or weed control at 7.1 µg/mL (0.0071 mg/mL (Table 1)) came out at 10%. Moreover, the pest or weed control at 16 µg/mL (0.016 mg/mL (Table 1)) stood at 0%. Moreover, the pest or weed control at 35.7 µg/mL (0.0357 mg/mL (Table 1)) is 66%. Moreover, the pest or weed control at 53 µg/mL (0.053 mg/mL (Table 1)) stood at 30%. Further, the pest or weed control at 80 µg/mL (0.08 mg/mL (Table 1)) was 93%. In addition, the pest or weed control at 119 µg/mL (0.119 mg/mL (Table 1)) came out at 36%. Besides, the pest or weed control at 178 µg/mL (0.178 mg/mL (Table 1)) was found to be 83%. Moreover, the pest or weed control at 267 µg/mL (0.267 mg/mL (Table 1)) came to 87%. Moreover, the pest or weed control at 400 µg/mL (0.4 mg/mL (Table 1)) worked out at 94%. Besides, the pest or weed control at 598 µg/mL (0.598 mg/mL (Table 1)) was 99%. Moreover, the pest or weed control at 890 µg/mL (0.89 mg/mL (Table 1)) is 95%. Moreover, the pest or weed control at 2000 µg/mL (2 mg/mL (Table 1)) worked out at 96%. Further, where the note is “4.47 mg/mL (Table 1)”, the pest or weed control at 4470 µg/mL came out at 98%. Besides, where the note is “10 mg/mL (Table 1)”, the pest or weed control at 10000 µg/mL was found to be 96%.
